For orientation: half-life means the time in which the quantity being followed falls by half. The low end stands for rapid decline, the high end for slow decline. As usually defined, the IC50 is the concentration at which inhibition is half-maximal. As a reminder, the clearance is a measure of how efficiently the substance is removed, as volume per time. Lower therefore signals a low capacity for elimination.

Entries after “also recorded” stand apart in the source; their conditions may differ. A value given as a limit tells only on which side of the number the result lay.

Data set [1] is described as follows: Liver cytosolic stability. The class given is in vitro ADME, and rat. The note with it: human, mouse, rat, liver cytosol.
A short description of data set [2]: Metabolic stability in hepatocytes. The class given is in vitro ADME, and mouse. The settings on record: rat, dog, mouse.
Data set [3] in a line: BBB-PAMPA permeability assay. The data set is classed as in vitro ADME. The note with it: pH 7.4. A general note: The PAMPA barrier holds no transporters, so it reflects passive diffusion.
Another data set concerns the target T1, CYP450 2C8 (Homo sapiens, UniProt P10632).
T1 sequence (P10632 1-490): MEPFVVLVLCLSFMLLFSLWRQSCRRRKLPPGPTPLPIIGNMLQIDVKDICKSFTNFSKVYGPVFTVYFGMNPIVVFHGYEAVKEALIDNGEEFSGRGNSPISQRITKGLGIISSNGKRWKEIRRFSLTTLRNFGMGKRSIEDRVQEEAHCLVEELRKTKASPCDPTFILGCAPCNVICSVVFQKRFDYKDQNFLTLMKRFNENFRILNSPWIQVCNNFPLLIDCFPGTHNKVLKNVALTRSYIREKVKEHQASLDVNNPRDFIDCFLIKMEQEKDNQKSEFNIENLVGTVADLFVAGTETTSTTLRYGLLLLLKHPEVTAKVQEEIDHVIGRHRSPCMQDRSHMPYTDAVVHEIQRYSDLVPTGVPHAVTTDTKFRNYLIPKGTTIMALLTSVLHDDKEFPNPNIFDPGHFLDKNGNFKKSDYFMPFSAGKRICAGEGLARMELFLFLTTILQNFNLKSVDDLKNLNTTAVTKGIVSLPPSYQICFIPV
In words: CYP450 inhibition, 2C8. The data set is classed as in vitro ADME.

For another data set, the target named is T2, CYP450 2B6 (Homo sapiens, UniProt P20813).
T2 sequence (P20813 1-491): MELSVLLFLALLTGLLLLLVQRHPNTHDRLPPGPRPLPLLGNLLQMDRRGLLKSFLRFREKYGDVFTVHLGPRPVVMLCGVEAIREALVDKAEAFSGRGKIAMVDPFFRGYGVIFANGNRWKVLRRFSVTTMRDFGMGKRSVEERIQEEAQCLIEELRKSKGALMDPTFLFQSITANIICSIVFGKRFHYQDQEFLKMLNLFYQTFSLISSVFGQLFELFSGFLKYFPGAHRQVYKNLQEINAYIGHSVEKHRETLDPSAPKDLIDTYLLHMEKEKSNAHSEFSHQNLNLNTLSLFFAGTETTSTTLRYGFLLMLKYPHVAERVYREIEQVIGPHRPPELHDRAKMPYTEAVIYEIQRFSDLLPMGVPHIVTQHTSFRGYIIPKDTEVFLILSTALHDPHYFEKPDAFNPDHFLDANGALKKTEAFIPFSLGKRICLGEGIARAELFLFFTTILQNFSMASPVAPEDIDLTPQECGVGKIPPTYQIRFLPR
Description: CYP450 inhibition, 2B6. The class given is in vitro ADME.

A further data set in a line: Metabolite ID. The settings on record: also in the presence of GSH. The data set is classed as in vitro ADME.
Another data set has as its system CYP. Description: CYP induction. The class given is in vitro ADME. The settings on record: at 10 μM.
Data set [4] in a line: Mouse pharmacokinetic studies. The class given is in vivo, CD1 mice. The settings on record: male, CD1, mouse, plasma, iv, 10 mg/kg.
Data set [5] has as its system tumor LDH activity (A673 flank xenograft). Description: In vivo LDHA activity in A673 xenograft tumor mouse model. The settings on record: single IV 50 mg/kg, A673 xenograft mice.

In the case of `Cc1ccc(C#Cc2cccc(-c3nn(-c4nc(C(=O)O)cs4)c(CC4CC4)c3Cc3ccc(S(N)(=O)=O)c(F)c3)c2)s1` [Compound 52, 2-(5-(Cyclopropylmethyl)-4-(3-fluoro-4-sulfamoylbenzyl)-3-(3((5-methylthiophen-2-yl)-ethynyl)phenyl)-1H-pyrazol-1-yl)thiazole4-carboxylic Acid], the half-life in data set [1] is more than 2 h; in data set [2], more than 2.5 h. Also, the PAMPA-BBB permeability entry in [3] is on record as “low permeability”. Also, the IC50 against CYP450 2C8 stood at 7.5 µM; against CYP450 2B6, 14 µM. For the same molecule, the “metabolite ID (in vitro)” value in “Metabolite ID” is reported as “no significant phase I or II metabolites”. Besides, the CYP induction result with CYP is “no induction at 10 μM”. In addition, the Ames entry in “Ames assay” is given as “not active; also recorded: negative”. This molecule also displayed a clearance at 24 h in data set [4] of 10.4 mL/min/kg. Besides, in data set [5], the “effect on LDH activity in tumors (in words)” value is recorded as “significantly reduced”.

(Values after PMC7830743 (Journal of medicinal chemistry, 2020).)
